Experimental data as given in PubChem BioAssay (NCI).
Where “and” joins values, the source holds several entries; their conditions need not be identical. Equal values may be shown once.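 Interpolation was linear, between the two tested concentrations surrounding the appropriate level; five concentrations were tested over 48 hours in 96-well plates. At the GI50, growth is halved. Definition used: TGI = concentration required for complete inhibition of growth.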

How the values were obtained:
Assay in all cases: NCI anticancer screen, dose series, 48 h
[1] = system: BT-549 breast
[2] = system: CAKI-1 renal
[3] = system: CCRF-CEM leukemia
[4] = system: HCT-15 colon
[5] = system: MDA-MB-231 breast
[6] = system: OVCAR-4 ovarian
[7] = system: SF-268 CNS
[8] = system: SF-539 CNS
[9] = system: SNB-19 CNS
[10] = system: T-47D breast

| Compound | GI50 [1] | TGI [1] | GI50 [2] | TGI [2] | GI50 [3] | GI50 [4] | TGI [4] | GI50 [5] | TGI [5] | GI50 [6] [µM] | TGI [6] | GI50 [7] [µM] | TGI [7] | GI50 [8] | TGI [8] | GI50 [9] | TGI [9] | GI50 [10] [µM] | TGI [10] | TGI [3] |
| --- | --- | --- | --- | --- | --- | --- | --- | --- | --- | --- | --- | --- | --- | --- | --- | --- | --- | --- | --- | --- |
| COc1ccc2c(c1)C(=O)/C(=C/c1ccc([N+](=O)[O-])s1)O2 | 0.246 µM | 0.617 µM | 2.19 µM | > 100 µM | 0.308 µM | 0.219 µM | 0.697 µM | 0.203 µM | 0.474 µM | 0.34 | 1.14 µM | 0.268 | 0.66 µM | 0.352 µM | 1.41 µM | 0.522 µM | 2 µM | 0.248 | 0.728 µM | – |
| COc1cc(OC)c2cc(C(=O)O)c(=O)oc2c1 | > 100 µM | > 100 µM | 61.4 µM | > 100 µM | > 100 µM | > 100 µM | > 100 µM | > 100 µM | > 100 µM | > 100 | > 100 µM | > 100 | > 100 µM | > 96.2 µM | > 100 µM | > 100 µM | > 100 µM | > 100 | > 100 µM | > 100 µM |
| CS(=O)(=O)Nc1cccc(-c2ccc3c(NC(=O)C4CC4)n[nH]c3c2)c1 | 5.86 µM | > 25 µM | > 20.6 µM | > 25 µM | 1.33 µM | 7.29 µM | > 25 µM | 6.35 µM | > 25 µM | 2.68 | > 25 µM | 2.78 | > 25 µM | 1.5 µM | > 25 µM | 3.64 µM | > 25 µM | 1.2 | > 25 µM | > 25 µM |
| CC(C)=CCc1ccc(O)c(=O)cc1C(C)C | 1.05 µM | 36.4 µM | 0.29 µM | 2.4 µM | 0.485 µM | 0.362 µM | > 100 µM | 3.36 µM | > 100 µM | 0.532 | > 100 µM | 0.671 | > 100 µM | 0.764 µM | > 41.1 µM | 0.735 µM | > 100 µM | 3.29 | > 100 µM | > 100 µM |
| N#Cc1c(-c2ccc(Cl)cc2)c(-c2ccc(Cl)cc2)nn(CCOC(=O)CCC(=O)O)c1=O | – | > 100 µM | – | 22.9 µM | – | – | 4.97 µM | – | 28.6 µM | – | > 91.6 µM | – | > 72.1 µM | – | 1.49 µM | – | > 49.2 µM | – | > 100 µM | > 43.6 µM |
| Cc1cc(NCCCCNc2ccnc3cc(Cl)ccc23)nc(Nc2ccc(C(=O)N3CCCC3)cc2)n1 | 1.83 µM | 4.38 µM | 2.06 µM | 5.6 µM | 2.86 µM | 2.28 µM | 6.75 µM | 2.14 µM | 5.12 µM | 2.32 | 11 µM | 2.1 | 6.21 µM | 1.74 µM | 3.54 µM | 4.5 µM | 18.1 µM | 2.64 | 6.76 µM | > 100 µM |
| O=C1c2cccc3cccc(c23)C(=O)N1CCCCN1CCN(CCCCOc2ccc(-c3nc4ccc(N5CCOCC5)cc4[nH]3)cc2)CC1 | 35.4 µM | > 100 µM | > 100 µM | > 100 µM | > 100 µM | 56.2 µM | > 100 µM | 9.16 µM | > 100 µM | > 100 | > 100 µM | > 100 | > 100 µM | > 100 µM | > 100 µM | > 100 µM | > 100 µM | 15.3 | > 100 µM | > 100 µM |
| O=C1Nc2ccccc2/C1=C/c1ccccc1 | – | 31.2 µM | – | > 100 µM | – | – | 35.4 µM | – | 46.8 µM | – | 83 µM | – | 35.1 µM | – | 42.6 µM | – | 30 µM | – | 41.9 µM | 71.6 µM |
| CCCC(=O)Nc1cc([N+](=O)[O-])c([N+](=O)[O-])cc1OC | – | 31 µM | – | 29.5 µM | – | – | > 100 µM | – | 38.9 µM | – | 33.6 µM | – | 34.6 µM | – | 37.8 µM | – | 30.7 µM | – | 19.4 µM | 51.4 µM |
| COc1ccc2cc3[n+](cc2c1OC)CCc1cc2c(cc1-3)OCO2 | 3.71 µM and 2.59 µM and 5.39 µM | > 100 µM and 56.9 µM | > 100 µM and 16.8 µM and 65 µM | > 100 µM and 210 µM | 9.29 µM | > 100 µM and 216 µM | > 325 µM | 15.9 µM | > 100 µM | – | 93.7 µM and > 100 µM and 62 µM | 4.68 | – | 18.1 µM | > 100 µM and 83.1 µM | 0.831 µM | > 100 µM and > 77.2 µM and 145 µM | 1.88 | 29.5 µM and 42.2 µM and > 68 µM | – |
| O=c1oc2ccc(F)cc2c(=O)n1-c1ccc(Cl)cc1F | 0.488 µM | 2.43 µM | 0.36 µM | 3.41 µM | 2.62 µM | 1.26 µM | 10.3 µM | 0.675 µM | 6.33 µM | 0.737 | 7.68 µM | 0.879 | 11.7 µM | 0.564 µM | 6.79 µM | 0.541 µM | > 100 µM | 0.661 | 5.46 µM | 13 µM |
| CC1CC(C)/C(=N/NC(N)=O)C(C(O)CC2CCC(=O)NC2=O)C1 (stereo not given) | 7.08 µM | > 100 µM | 1.22 µM | 20.3 µM | 2 µM | 3.39 µM | > 100 µM | 8.4 µM | 88.9 µM | 5.64 | > 100 µM | 2.98 | 45.1 µM | 3.07 µM | 39.8 µM | 3.73 µM | > 100 µM | 4.41 | > 100 µM | 97.2 µM |
| O=C(Nc1cccnc1)c1cccc([N+](=O)[O-])c1 | > 100 µM | > 100 µM | > 100 µM | > 100 µM | > 100 µM | > 100 µM | > 100 µM | > 100 µM | > 100 µM | > 100 | > 100 µM | > 100 | > 100 µM | > 100 µM | > 100 µM | > 100 µM | > 100 µM | > 100 | > 100 µM | > 100 µM |
| c1ccc2c(Nc3ccc(Oc4ccc(Nc5c6ccccc6nc6ccccc56)cc4)cc3)c3ccccc3nc2c1 | 2.07 µM and 1.87 µM | 4.54 µM and 4.4 µM | 1.82 µM | 3.22 µM and 3.01 µM | 0.217 µM | 0.019 µM and 0.017 µM | 0.0358 µM and 0.0379 µM | 0.197 µM and 0.139 µM | 0.566 µM and 0.268 µM | 0.278 | 0.637 µM and 0.145 µM | 0.758 | 2.81 µM and 4.88 µM | 2.1 µM and 1.65 µM | 3.91 µM and 3.32 µM | 0.333 µM | 1.11 µM | 0.221 | 0.51 µM and 2.74 µM | 0.719 µM |
| CC(C)=CC(O)C/C(C)=C/CC/C(C)=C/CCC1(C)C(CCCO)/C(=C(/C)C=O)CCC1(C)O (stereo not given) | – | > 100 µM | – | > 100 µM | – | – | > 100 µM | – | 74.1 µM | – | > 100 µM | – | > 100 µM | – | 52 µM | – | > 100 µM | – | > 100 µM | > 100 µM |
| O=C(NCC(=O)N1CC[C@H](NC2CCC(O)(c3ccc(-c4ncccn4)cn3)CC2)C1)c1cccc(C(F)(F)F)c1 (stereo not given in full) | 34.9 µM | > 100 µM | 45.7 µM | > 100 µM | 88.6 µM | 52.8 µM | > 100 µM | 49.5 µM | > 100 µM | 37.7 | > 100 µM | > 100 | > 100 µM | 96.5 µM | > 100 µM | > 100 µM | > 100 µM | 22.9 | > 100 µM | > 100 µM |
| COc1ccc(Cn2cnc3cc(C(=O)Nc4cccc5ccccc45)ccc32)c(OC)c1 | 0.0603 µM | 6.53 µM | 0.0387 µM | > 100 µM | 0.0407 µM | 0.0443 µM | > 51.1 µM | 0.0894 µM | 4.31 µM | 0.122 | > 100 µM | 0.104 | > 51.7 µM | 0.0316 µM | 0.147 µM | 0.0465 µM | > 100 µM | 0.0372 | > 100 µM | > 100 µM |
| C/C=C(\CCC1NCCc2c1[nH]c1ccccc21)[Si](C)(C)C (stereo not given) | – | 23.2 µM | 7.02 µM and 2.72 µM | 21.4 µM and 11 µM | 7.18 µM and 2.17 µM | – | 32.7 µM and 5.08 µM | – | 4.56 µM | – | 12.6 µM and 9.04 µM | – | 26.2 µM and 23.6 µM | 6.2 µM and 1.66 µM | 11.9 µM and 3.09 µM | 15.4 µM and 7.22 µM | 30 µM and 22 µM | – | 4.89 µM | 17.2 µM and 8.44 µM |
| COc1cc(C2CC(c3ccc(Nc4ccnc5cc(Cl)ccc45)cc3)=NN2C=O)cc(OC)c1OC (stereo not given) | 1.92 µM | 3.97 µM | 5.47 µM | 26.5 µM | 1.82 µM | 3.56 µM | > 100 µM | 4.39 µM | 54 µM | 3.19 | 13.3 µM | 28 | > 100 µM | 2.75 µM | 6.38 µM | 18.2 µM | > 100 µM | 2.33 | 7.4 µM | 69.4 µM |
| Cn1ccnc1C(=O)/C=C/c1ccc(C(=O)Nc2ccccc2O)cc1 | 1.8 µM | 5.05 µM | 1.65 µM | 4.03 µM | 1.13 µM | 1.42 µM | 5.49 µM | 3.26 µM | 12.3 µM | 2.5 | 12.5 µM | 2.39 | 7.2 µM | 1.56 µM | 3.5 µM | 2.6 µM | 11.5 µM | 2.68 | 10.8 µM | 8.25 µM |
